Laboratory results published in the supplement of paper PMC8967900.

Key:
Experiment in all cases: selective drug sensitivity score (sDSS, relative to normal bone marrow) (sDSS (score)); higher = more potent and effective on the cell line relative to normal bone marrow cells
Conditions in all cases: 72 h
TANOUE = system: TANOUE
NALL-1 = system: NALL-1
JURKAT = system: JURKAT
RCH-ACV = system: RCH-ACV
COG-LL-319h = system: COG-LL-319h
PF-382 = system: PF-382
MHH-CALL-3 = system: MHH-CALL-3
COG-LL-332h = system: COG-LL-332h
HPB-ALL = system: HPB-ALL
KASUMI-10 = system: KASUMI-10
MOLT-16 = system: MOLT-16
MOLT-4 = system: MOLT-4
MOLT-14 = system: MOLT-14
CCRF-HSB2 = system: CCRF-HSB2
REH = system: REH
LC4-1 = system: LC4-1
697 = system: 697
DND-41 = system: DND-41
COG-LL-402h = system: COG-LL-402h
P12-ICHIKAWA = system: P12-ICHIKAWA
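Further: ALL cell lines in 384-well plates, five doses spanning 10,000-fold, each plate scaled between vehicle and 100 µmol/L benzalkonium chloride controls, sDSS an adapted area-under-curve metric.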

| Compound | selective drug sensitivity score (TANOUE) | selective drug sensitivity score (NALL-1) | selective drug sensitivity score (JURKAT) | selective drug sensitivity score (RCH-ACV) | selective drug sensitivity score (COG-LL-319h) | selective drug sensitivity score (PF-382) | selective drug sensitivity score (MHH-CALL-3) | selective drug sensitivity score (COG-LL-332h) | selective drug sensitivity score (HPB-ALL) | selective drug sensitivity score (KASUMI-10) | selective drug sensitivity score (MOLT-16) | selective drug sensitivity score (MOLT-4) | selective drug sensitivity score (MOLT-14) | selective drug sensitivity score (CCRF-HSB2) | selective drug sensitivity score (REH) | selective drug sensitivity score (LC4-1) | selective drug sensitivity score 697 | selective drug sensitivity score (DND-41) | selective drug sensitivity score (COG-LL-402h) | selective drug sensitivity score (P12-ICHIKAWA) |
| --- | --- | --- | --- | --- | --- | --- | --- | --- | --- | --- | --- | --- | --- | --- | --- | --- | --- | --- | --- | --- |
| COc1ccc(C[C@H](NC(=O)[C@H](C)NC(=O)CN2CCOCC2)C(=O)N[C@@H](Cc2ccccc2)C(=O)[C@@]2(C)CO2)cc1 [ONX-0914] (top concentration 10000 nM) | -4.2 | 9.8 | -4.4 | -4.4 | -0.8 | 6.5 | 7.2 | 2.2 | -2.4 | 0.9 | 2.5 | 1.9 | 0.5 | 9.9 | -1.6 | -1.2 | -5 | 11.7 | 2 | 7.3 |
| CC(=O)c1cnc2ccc(-c3cc(Cl)c(O)c(Cl)c3)nc2c1N[C@H]1CC[C@H](CN(C)C)CC1 [OTS167] (top concentration 1000 nM) | -12.1 | -8.72 | -3.52 | 8.28 | 6.58 | -2.62 | -1.02 | 3.78 | -0.42 | 5.88 | 2.78 | -1.32 | 2.78 | 13.2 | 2.18 | -3.42 | 5.48 | -1.12 | 7.08 | -3.32 |
| COC(=O)C[C@](O)(CCCC(C)(C)O)C(=O)O[C@@H]1C(OC)=C[C@]23CCCN2CCc2cc4c(cc2[C@H]13)OCO4 [Omacetaxine] (top concentration 10000 nM) | -14.8 | -6.78 | -0.48 | 7.22 | 4.12 | 0.62 | 15.6 | 2.62 | -4.48 | 4.82 | 6.32 | 3.32 | 5.62 | 4.92 | -1.08 | 1.52 | 10.5 | -2.78 | 7.92 | 0.82 |
| C1=N/C2=N/c3ccc(OCCN4CCCC4)c(c3)COC/C=C/COCc3cccc(c3)C(=C1)N2 [Pacritinib] (top concentration 10000 nM) | -8.4 | -8.4 | -8 | 9.2 | 0 | -7.5 | -7.7 | -4.1 | -5.7 | 2.2 | -5.6 | -7.3 | -4 | -3.5 | -3.2 | -5.6 | -2.6 | -4.7 | 2.9 | -7.3 |
| Cc1[nH]c2ccccc2c1CCNCc1ccc(/C=C/C(=O)NO)cc1 [Panobinostat] (top concentration 1000 nM) | -6.56 | -0.46 | 1.04 | 14.1 | 14.2 | 4.34 | 15.6 | 3.64 | 10.1 | 7.74 | 9.04 | 2.94 | 6.74 | 5.24 | 0.44 | 5.84 | 7.64 | 5.04 | 14.6 | 4.14 |
| Cc1ccc(Nc2nccc(N(C)c3ccc4c(C)n(C)nc4c3)n2)cc1S(N)(=O)=O [Pazopanib] (top concentration 10000 nM) | -1.26 | -1.26 | 2.84 | 10.5 | 0.74 | 1.74 | -1.26 | 0.14 | 0.64 | 2.24 | 1.94 | -1.06 | -1.26 | 4.34 | 4.14 | 5.24 | 4.94 | 0.04 | -1.26 | 1.04 |
| Nc1nc2[nH]cc(CCc3ccc(C(=O)N[C@@H](CCC(=O)O)C(=O)O)cc3)c2c(=O)[nH]1 [Pemetrexed] (top concentration 10000 nM) | -0.72 | 12.2 | 15.6 | 28.8 | 27.3 | 12.1 | 13.5 | 21.9 | 9.98 | 19.1 | 28.4 | 21.5 | 20.2 | 28.2 | 22.1 | 21 | 28.3 | 18.6 | 7.98 | 26.1 |
| Cc1ccc(C(=O)Nc2ccc(CN3CCN(C)CC3)c(C(F)(F)F)c2)cc1C#Cc1cnc2cccnn12 [Ponatinib] (top concentration 1000 nM) | -3.78 | -3.08 | 1.42 | 14.8 | 10.3 | 6.62 | 10.7 | 17.6 | -2.18 | 16 | 6.62 | 4.32 | 7.42 | 34.4 | 2.62 | 0.32 | 6.62 | 1.42 | 10.2 | 1.22 |
| C[C@]12C=CC(=O)C=C1CC[C@@H]1[C@@H]2[C@@H](O)C[C@@]2(C)[C@H]1CC[C@]2(O)C(=O)CO [Prednisolone] (top concentration 10000 nM) | -2.8 | 18 | -2.1 | 26.8 | 16.2 | -1.6 | 26.7 | 2.5 | 2.2 | -3 | 3.5 | 1.1 | -0.5 | 9.3 | -3 | 8.4 | 17.8 | 29.4 | 16.9 | 14.6 |
| CC(C)(C)c1cc(NC(=O)Nc2ccc(-c3cn4c(n3)sc3cc(OCCN5CCOCC5)ccc34)cc2)no1 [Quizartinib] (top concentration 1000 nM) | -1.52 | -1.02 | -1.52 | 2.08 | 5.48 | 0.98 | -1.52 | 2.78 | 5.18 | 17.8 | 1.88 | -0.82 | -1.02 | -0.12 | -1.52 | 4.78 | 0.98 | 5.38 | -1.52 | 0.18 |
| Nc1cc(F)ccc1NC(=O)/C=C/c1cnn(C/C=C/c2ccccc2)c1 [RGFP966] (top concentration 10000 nM) | -0.26 | 12.2 | 11.2 | 14.8 | 17.5 | 11.1 | 12.3 | 15.7 | 11 | 9.44 | 18.2 | 8.94 | 17.1 | 15.9 | 17.1 | 12.2 | 13.2 | 6.84 | 6.84 | 17.8 |
| CNC(=O)c1cc(Oc2ccc(NC(=O)Nc3ccc(Cl)c(C(F)(F)F)c3)c(F)c2)ccn1 [Regorafenib] (top concentration 10000 nM) | 4.44 | 3.24 | 4.04 | 10.9 | 1.84 | 4.34 | -1.56 | 6.74 | 1.34 | 7.34 | 3.34 | 3.24 | 4.04 | 6.14 | 4.44 | 6.74 | 7.94 | 4.44 | 1.24 | 3.24 |
| CN(C)Cc1ccc(S(=O)(=O)n2ccc(/C=C/C(=O)NO)c2)cc1 [Resminostat] (top concentration 10000 nM) | -4.16 | -4.46 | 1.34 | 12.2 | 12.2 | 2.64 | 11.7 | 1.34 | 6.24 | 5.94 | 4.54 | 1.24 | 9.74 | 2.24 | 2.04 | 4.54 | 7.74 | 1.74 | 10.2 | 7.34 |
| COc1cc(OC)c(/C=C/S(=O)(=O)Cc2ccc(OC)c(NCC(=O)O)c2)c(OC)c1 [Rigosertib] (top concentration 10000 nM) | -5.04 | 16.5 | 14.4 | 17.3 | 4.96 | 10.9 | 13.4 | 15.8 | 13.5 | 12 | 18.8 | 15.9 | 17.9 | 14.6 | 14 | 16.6 | 17 | 9.06 | 14.2 | 10.4 |
| COc1ccc(CCc2nc3cc(-c4c(C)noc4C)ccc3n2C[C@H](C)N2CCOCC2)cc1Cl [SGC-CBP30] (top concentration 25000 nM) | -3.12 | -0.62 | 2.18 | 7.88 | 16.4 | 3.08 | 9.48 | 0.28 | 1.88 | 4.78 | 6.58 | 1.88 | 4.58 | 2.38 | -0.02 | 7.48 | 2.48 | 2.88 | 7.78 | 1.68 |
| CCS(=O)(=O)c1cccc(-c2cc(C(=O)NC3CCN(C)CC3)c(C)c3[nH]c4ncc(C)cc4c23)c1 [TAK-901] (top concentration 1000 nM) | -4.74 | 11.8 | 1.86 | 10.7 | 10.5 | 7.16 | 6.66 | 11.3 | 5.36 | 9.76 | 12.6 | 10.6 | 7.26 | 13.6 | 11.1 | 10.8 | 12.8 | 0.66 | 8.96 | 12.3 |
| Nc1nc(NC2CC2)cc(-c2cccc(Cl)c2Cl)n1 [TH588] (top concentration 25000 nM) | -0.58 | -0.28 | 15.2 | 3.52 | 3.82 | 6.72 | -0.58 | 6.82 | 3.92 | 6.22 | 16.3 | 9.12 | 10.8 | 8.42 | 5.82 | 8.72 | 8.72 | 5.82 | 3.72 | 3.72 |
